Patent US20030134859A1 (SANKYO COMPANY, LIMITED, priority 2000, published 2003)
Read-outs that look alike come from different tables or passages of the source.

Experiments:
[1] = test system: Rat white adipocytes; test: Stimulation of differentiation of the adipocytes (Oil Red O); assay type: cell-based; conditions: Rattus norvegicus, Adipocyte, 120 h, 100 nM test compound; 5 days; Oil Red O ABS550; control = 100%, blank = 0%; Table 7; read-out: Rate of Differentiation (%)
Protocol: Rat white adipocytes contained in the white adipocyte culture kit, which was purchased from HOKUDO, were used. Mediums for proliferation and for differentiation-inducing, which were contained in the white adipocyte culture kit purchased from HOKUDO, were used.
Immediately after arrival of the purchased cells, all medium for transportation was discarded and replaced with 5 ml of proliferation medium (/25 cm^2-flask) and the cells were cultured for one day. Then, a cell suspension was prepared with proliferation medium so as to be 83,000 cells/mL, and the suspension was plated into a type I 96-well collagen-coated microplate (SUMITOMO BAKELITE CO., ltd.) so as to be 5,000 cells/well (60 μL/well). For the blank, the proliferation medium without the cells was plated into the well (blank well) of each plate.
Further, 1) in the group treated with the test compound, 3 μL/well of a solution in which the test compound (100 μM) was dissolved in DMSO solution and diluted with differentiation-inducing medium by 20 times (final concentration of the test compound: 100 nM, final concentration of DMSO: 0.1% (v/v)) were added to the well where the cells were plated. 2) In the control group, 3 μL/well of DMSO solution that was diluted with differentiation-inducing medium by 20 times (final concentration of DMSO: 0.1% (v/v)) were added to the well where the cells were plated. Further, 3) in the blank group, 3 μL/well of DMSO solution that was diluted with differentiation-inducing medium by 20 times (final concentration: 0.1% (v/v)) were added to the blank well.
After culturing for 5 days, all differentiation-inducing medium was discarded and replaced with 60 μL of 10% (v/v) of formaldehyde solution (for fixation) in each well and the cells were kept stationary for 20 min at room temperature. After this the fixative solution was discarded and replaced with 60 μL of 0.2% (v/v) Triton X (Sigma-Aldrich Japan K. K.) solution in each well and kept stationary for 5 min at the room temperature. Then all Triton X solution was discarded and replaced with 60 μL of 60% (v/v) isopropanol solution containing dissolved Oil Red 0 (Sigma-Aldrich Japan K. K.) so as to be 0.3%, which was adipose tissue staining solution, and the well was left stationary for 10 min at room temperature. After the adipose tissue staining solution was discarded, the well was washed twice with 60 μL of 60% (v/v) isopropanol solution. Then, 100 μL of the DMSO were added to each well and stirred for 5 min at room temperature. The absorbance was measured at 550 nm (ABS550) with a multi-plate reader (LabsSystems), and the stained amount by Oil Red 0 was determined. The measured level at ABS550 in the control group was defined as 100%, while the level at ABS550 in the blank group was defined as 0%. The differentiation rate (%) of the adipocytes treated with the test compound was calculated.

[2] = test system: TNF-α production; test: Inhibitory activity against cytokine (TNF-α) production in LPS-stimulated RAW264.7 cells; assay type: cell-based, mouse; conditions: Mus musculus, 1 μM test compound, LPS 10 ng/mL
Protocol: The mouse monocyte/macrophage cell line, RAW264.7 (ATCC TIB71) was purchased from Dainippon Pharmaceutical Co., Ltd. The RAW264.7 cells were cultured in a CO2 incubator (37° C., 95% of humidity, 5% of CO2) by using the Dulbecco's modified Eagle's medium (DMEM medium; GIBCO, Cat. No. 11995-040) containing bovine fetal serum (the final concentration: 10% (v/v), MOREGATE, lot No. 474030), penicillin G (the final concentration: 50 units/mL […], GIBCO) and streptomycin (the final concentration: 20 μg/mL, GIBCO).
Sixty (60) μL of the RAW264.7 cell suspension (83,000 cells/mL) were plated into each well of a 96-well microplate (5,000 cells/well). After the cells were cultured for 4 hr in a CO2 incubator, 40 μL of DMEM medium containing 25 ng/mL of LPS (Sigma-Aldrich Japan K. K.) were added into each well (final concentration of LPS: 10 ng/mL). The test compound dissolved in DMSO at a concentration of 1 mM was diluted with DMEM medium by 20 times. Then 2 μL/well of the diluted solution were added to wells containing the plated cells (final concentration of the test compound: 1 μM). As the control, 2 μL/well of DMSO diluted with DMEM medium by 20 times were added to wells containing the plated cells either with LPS (final concentration: 10 ng/mL) or without LPS. After these cells were cultured in a CO2 incubator for 15 hr, the supernatant of the medium was recovered. The amount of mTNF-α in the medium supernatant was determined with a mouse TNF-α ELISA kit Quantikine M (R&D System), according to the experiment protocol attached with the kit.
The inhibitory activity of the test compound against TNF-α production was calculated according to the following equation.
A: The amount of TNF-α in the presence of test compound
B: The amount of TNF-α in the control without LPS
C: The amount of TNF-α in the control with 10 ng/mL of LPS
Inhibitory Activity of the Test Compound against TNF-α Production (%)=100−(A−B)/(C−B)×100

[3] = test system: Mouse preadipocyte strain 3T3-L1; test: Inhibition of differentiation as an indication of acetic acid uptake; assay type: cell-based; conditions: Mus musculus, control (0.01% dimethylsulfoxide) = 100%, read-out: Rate of Uptake (%) of [2-14C] acetic acid
Procedure, shortened: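 Confluent 3T3-L1 cells induced to differentiate for 4 days (insulin, IBMX, dexamethasone, 5% FBS) with test compound at 0.1 μM final or 0.01% DMSO, then 2 days in insulin maintenance medium, at 37 °C, 10% CO2. [2-14C]acetic acid uptake over 1 hr counted by scintillation; expressed as % of DMSO control.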

[4] = test system: Rat white adipocytes; test: Inhibition of the differentiation of adipocytes (Oil Red O); assay type: cell-based; conditions: Rattus norvegicus, Adipocyte, 120 h, 100 nM test compound; 5 days; Oil Red O ABS550; control = 100%, blank = 0%; Table 3; read-out: Rate of Differentiation (%)
Procedure, shortened: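 Rat white preadipocytes, 5,000 cells/well, given differentiation medium with compound at 100 nM final (0.1% DMSO) for 5 days at 37 °C. Lipid stained with Oil Red O, eluted in DMSO, read at 550 nm; differentiation % relative to DMSO control (100%) and blank (0%).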

Compound	activity at 0.1 µM [1] [%]	inhibition at 1 µM ([2]; RAW264.7, 15 h) [%]	activity at 0.1 µM ([3]; 3T3-L1, 0.1 μM test substance) [%]	inhibition at 1 µM ([2]; 15 hr) [%]	activity at 0.1 µM ([3]; 0.1 μM test substance) [%]	activity at 0.1 µM [4] [%]
CCc1ccc(NC(=O)c2cc([N+](=O)[O-])ccc2Cl)cc1 [Example 12, N-(4-Ethylphenyl)-(2-chloro-5-nitrophenyl)carboxamide]	120	21.8	66.4	–	–	–
CCc1ccccc1NC(=O)c1cc([N+](=O)[O-])ccc1Cl [Example 13, N-(2-Ethylphenyl)-(2-chloro-5-nitrophenyl)carboxamide]	127	16.2	93	–	–	–
O=C(Nc1nc(-c2cccc([N+](=O)[O-])c2)cs1)c1cc([N+](=O)[O-])ccc1Cl [Example 61, N-[4-(3-Nitrophenyl)thiazol-2-yl]-(2-chloro-5-nitrophenyl)carboxamide]	–	–	–	22.6	74.8	–
O=C(Nc1nc2ccc(Cl)cc2s1)c1cc([N+](=O)[O-])ccc1Cl [Example 68, N-(6-Chlorobenzothiazol-2-yl)-(2-chloro-5-nitrophenyl)carboxamide]	116	15.2	67.9	–	–	–
O=C(Nc1ccc(NC(=O)c2cc([N+](=O)[O-])ccc2Cl)cc1)c1cccnc1 [Example 123, N-[4-(Pyridin-3-ylcarbonylamino)phenyl]-(2-chloro-5-nitrophenyl)carboxamide]	148	15.1	96.2	–	–	–
CC(=O)Oc1ccc(-c2ccc(NC(=O)c3cc([N+](=O)[O-])ccc3Cl)cc2)cc1 [Example 134, N-[4-(4-Acetoxyphenyl)phenyl]-(2-chloro-5-nitrophenyl)carboxamide]	120	16.4	–	–	–	–
O=C(Nc1ccc(C(=O)N2CCN(c3ccccc3)CC2)cc1)c1cc([N+](=O)[O-])ccc1Cl [Example 165, N-[4-(4-Phenylpiperazin-1-ylcarbonyl)phenyl]-(2-chloro-5-nitrophenyl)carboxamide]	–	15.7	–	–	–	85.8
CCCCCCN(CCCC)c1ccc(-c2ccc(NC(=O)c3cc([N+](=O)[O-])ccc3Cl)cc2)cc1 [Example 199, N-[4-[4-(N-Butyl-N-hexylamino)phenyl]phenyl]-(2-chloro-5-nitrophenyl)carboxamide]	–	20.8	–	–	–	35.8
CCCCCN(CCC)c1ccc(-c2ccc(NC(=O)c3cc([N+](=O)[O-])ccc3Cl)cc2)cc1 [Example 211, N-[4-[4-(N-Pentyl-N-propylamino)phenyl]phenyl]-(2-chloro-5-nitrophenyl)carboxamide]	–	27.6	–	–	–	37.3
Nc1ccc(-c2csc(NC(=O)c3cc([N+](=O)[O-])ccc3Cl)n2)cc1 [Example 241, N-[4-(4-Aminophenyl)thiazol-2-yl]-(2-chloro-5 nitrophenyl)carboxamide]	–	28	–	–	–	57.9
CCOC(=O)NC(=O)Nc1ccc(-c2ccc(NC(=O)c3cc([N+](=O)[O-])ccc3Cl)cc2)cc1 [Example 244, N-[4-[4-(Ethoxycarbonylaminocarbonylamino)phenyl]phenyl]-(2-chloro-5-nitrophenyl)carboxamide]	–	26.5	–	–	–	45
O=C(NCc1ccccc1)Nc1ccc(-c2ccc(NC(=O)c3cc([N+](=O)[O-])ccc3Cl)cc2)cc1 [Example 248, N-[4-[4-(Benzylaminocarbonylamino)phenyl]phenyl]-(2-chloro-5-nitrophenyl)carboxamide]	–	19.1	–	–	–	64.4
Nc1cccc(-c2csc(NC(=O)c3cc([N+](=O)[O-])ccc3Cl)n2)c1 [Example 253, N-[4-(3-Aminophenyl)thiazol-2-yl]-(2-chloro-5-nitrophenyl)carboxamide]	–	29	–	–	–	55.7
